Paper PMC9960553, ““Dual Anta-Inhibitors” of the A2A Adenosine Receptor and Casein Kinase CK1delta: Synthesis, Biological Evaluation, and Molecular Modeling Studies” (Pharmaceuticals, 2023)
Like-named read-outs stand apart in the source and are kept apart here.

Assays:
CK1δ/ε = conditions: read-out: IC50 as CK1δ/ε inhibitor; cited from earlier work
CDK5 = system: CDK5; design: method as in PMID 18698753, PMID 29289448; conditions: cited from earlier work
truncated CK1δ = target: T1, truncated CK1δ (Homo sapiens, UniProt P48730); test: CK1δ luminescent kinase assay (Kinase-Glo); assay type: biochemical; conditions: for remaining activity at 10 µM / remaining activity at 40 µM: CK1δ residual activity; for remaining activity at 10 µM: compound at 10 μM, read-out: % Residual Activity at 10 μM ± sd; for remaining activity at 40 µM: compound at 40 μM, read-out: % Residual Activity at 40 μM ± sd; for IC50: truncated CK1δ, ATP 2 μM, read-out: IC50 (μM), CK1δ inhibition
T1 construct: recombinant human, GST-tagged, aa 1-294; GST; purchased Merck Millipore, Merck KGaA, Darmstadt, Germany
T1 sequence (P48730 1-294): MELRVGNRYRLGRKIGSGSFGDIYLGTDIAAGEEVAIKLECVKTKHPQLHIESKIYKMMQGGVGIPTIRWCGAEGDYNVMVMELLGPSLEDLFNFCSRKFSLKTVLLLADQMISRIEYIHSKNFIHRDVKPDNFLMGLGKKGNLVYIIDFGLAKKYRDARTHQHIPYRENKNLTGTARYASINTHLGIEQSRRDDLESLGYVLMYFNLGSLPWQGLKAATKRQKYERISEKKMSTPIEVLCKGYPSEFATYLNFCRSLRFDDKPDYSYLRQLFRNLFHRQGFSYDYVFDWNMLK
Procedure: Luminescent assays were performed in white 96-well plates in a 40 μL final volume with buffer containing 50 mM HEPES (pH 7.5), 1 mM EDTA, 1 mM EGTA, and 15 mM MgCl2. In a typical assay, 10 μL of inhibitor solution (desired concentrations were obtained by diluting a starting 10 mM solution in DMSO) and 10 μL of enzyme solution were added to the well, followed by 20 μL of assay buffer containing casein substrate (Sigma-Aldrich, Merck KGaA, Darmstadt, Germany, casein solution from bovine milk, 5% in water) and ATP, at a final concentration of 0.05% and 2 μM, respectively. […] After 60 min of incubation at 30 °C, the enzymatic reactions were stopped with the addition of 40 μL of KinaseGlo reagent. […] Data were analyzed using Excel and GraphPad Prism software (version 8.0).

human recombinant A2AAR [1] = target: T2, human recombinant A2AAR (Homo sapiens, UniProt P29274); conditions: read-out: KiA2AAR; cited from earlier work
T2 construct: expressed in transfected cells; host or cells: CHO cells (membranes)
T2 sequence (P29274 whole entry): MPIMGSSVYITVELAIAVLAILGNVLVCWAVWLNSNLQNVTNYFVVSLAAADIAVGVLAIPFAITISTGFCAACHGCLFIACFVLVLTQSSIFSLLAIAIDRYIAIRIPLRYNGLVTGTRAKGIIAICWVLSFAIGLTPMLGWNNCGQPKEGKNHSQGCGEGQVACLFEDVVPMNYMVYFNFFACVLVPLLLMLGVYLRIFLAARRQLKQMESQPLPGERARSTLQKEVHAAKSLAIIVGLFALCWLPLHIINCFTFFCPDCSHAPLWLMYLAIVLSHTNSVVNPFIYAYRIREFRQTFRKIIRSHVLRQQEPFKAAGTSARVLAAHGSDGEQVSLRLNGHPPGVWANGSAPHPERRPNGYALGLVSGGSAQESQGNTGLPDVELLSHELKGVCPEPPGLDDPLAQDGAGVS

human recombinant A1AR = target: T3, human recombinant A1AR (Homo sapiens, UniProt P30542); test: [3H]CCPA displacement binding in CHO cell membranes; conditions: mean ± standard error, read-out: KiA1
T3 construct: expressed in transfected cells; host or cells: CHO cells (membranes)
T3 sequence (P30542 1-326): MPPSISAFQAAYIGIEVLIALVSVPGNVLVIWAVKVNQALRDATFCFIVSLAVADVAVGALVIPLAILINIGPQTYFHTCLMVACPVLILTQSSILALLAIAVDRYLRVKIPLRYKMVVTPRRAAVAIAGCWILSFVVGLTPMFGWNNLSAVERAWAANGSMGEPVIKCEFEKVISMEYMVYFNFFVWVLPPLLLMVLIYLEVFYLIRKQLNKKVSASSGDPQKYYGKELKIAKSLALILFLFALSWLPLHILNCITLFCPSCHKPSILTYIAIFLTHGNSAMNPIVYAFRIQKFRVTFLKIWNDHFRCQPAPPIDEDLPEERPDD
Procedure: (§1) Compounds 5, 6, 8–12, 15–21, and 23–25 were evaluated in binding studies at human recombinant A1, A2A, and A3 ARs, stably transfected in Chinese hamster ovary (CHO) cells. [^3H]CCPA (2-chloro-N^6-cyclopentylAdo), [^3H]NECA (5’-N-ethylcarboxamidoAdo), and [^3H]HEMADO (2-hexynyl-N^6-methylAdo) were used as the, respective, radioligands. All compounds were also tested at the A2BARs by inhibition of NECA-stimulated adenylyl cyclase activity, using the GloSensor cAMP assay, but none of them were active at a concentration up to 30 μM [35]. The results, together with the data of the reference adenine derivative 1, are reported in Table 2 as Ki values in μM (± standard errors). In the table, the IC50 values (μM) of the CK1δ inhibitory activity are also indicated. […] We called the compounds endowed with receptor antagonist behavior combined with an enzyme inhibitory activity “dual anta-inhibitors”.
(§2) All of the pharmacological methods followed the procedures as described earlier. In brief, the membranes for radioligand binding were prepared from CHO cells stably transfected with human adenosine receptor subtypes through two centrifugations at different speeds. The first low-speed […] centrifugation allowed for the removal of cell fragments and nuclei, while the second, performed at high speed (100,000× g), allowed for the precipitation of the crude membrane fractions. The resulting membrane pellet was resuspended in the buffer used for the respective binding experiments, frozen in liquid nitrogen, and stored in aliquots at −80 °C.
(§3) The binding affinity of the novel compounds was evaluated using radioligand competition experiments in CHO cells stably expressing hA1AR, hA2AAR, hA3AR subtypes, as early described. Results were expressed as Ki values (dissociation constants), which were calculated with the program GraphPad (GraphPad Software, San Diego, CA, USA). Each concentration was tested three–five times in duplicate and the values given as the mean ± standard error (S.E.). The potency of compounds at the hA2BAR (expressed on CHO cells) was determined through a GloSensor cAMP Assay.

human recombinant A2AAR [2] = target: T2, human recombinant A2AAR; test: [3H]NECA displacement binding in CHO cell membranes; conditions: mean ± standard error, read-out: KiA2A
Procedure: as §1, §2, §3

human recombinant A3AR = target: T4, human recombinant A3AR (Homo sapiens, UniProt P0DMS8); test: [3H]HEMADO displacement binding in CHO cell membranes; conditions: mean ± standard error, read-out: KiA3
T4 construct: expressed in transfected cells; host or cells: CHO cells (membranes)
T4 sequence (P0DMS8 1-318): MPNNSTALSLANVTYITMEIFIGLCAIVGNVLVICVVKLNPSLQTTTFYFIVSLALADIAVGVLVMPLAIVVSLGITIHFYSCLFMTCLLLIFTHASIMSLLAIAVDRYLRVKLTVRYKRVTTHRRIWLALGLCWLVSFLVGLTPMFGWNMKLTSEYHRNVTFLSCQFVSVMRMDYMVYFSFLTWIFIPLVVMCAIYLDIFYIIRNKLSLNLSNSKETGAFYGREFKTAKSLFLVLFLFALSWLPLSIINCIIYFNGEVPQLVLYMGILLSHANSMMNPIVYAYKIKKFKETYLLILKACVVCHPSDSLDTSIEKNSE
Procedure: as §1, §2, §3

hA2AAR = target: T5, hA2AAR (Homo sapiens, UniProt P29274); test: Antagonism of NECA-induced cAMP accumulation in CHO cells, GloSensor cAMP assay; assay type: cell-based; conditions: CHO cells stably expressing hA2AAR; read-out: IC50, inhibition of NECA effect on cAMP production
T5 construct: expressed in transfected cells; host or cells: CHO cells stably expressing hA2AAR and pGloSensor-22F
T5 sequence (P29274 whole entry): as the sequence (P29274 whole entry) above
Procedure: In order to confirm the antagonist activity of the dual anta-inhibitors 12 and 17, they were evaluated in a functional assay in CHO cells stably expressing the hA2AAR. Firstly, they were tested alone, and […] in terms of cAMP stimulation was observed. […] Both 12 and 17 were able to inhibit the effect of NECA on cAMP production, thus resulting in A2AAR antagonists.
Functional activity was determined as described earlier. Briefly, cells stably expressing both the hA2A or hA2B AR and the plasmid pGloSensor-22F coding for the biosensor were cultured. This biosensor encodes for a genetically modified form of firefly luciferase into which a cAMP-binding protein moiety was inserted. The desiderate cell number was harvested and incubated for 2 h at r.t., with 3% v/v GloSensor cAMP reagent stock solution, 10% FBS, and 87% CO2 independent medium. Cells were dispensed in the wells of a 384-well plate and the reference agonist NECA or the under-study compounds were added at different concentrations. Since the compounds were unable to stimulate cAMP production, they were studied as antagonists. The antagonist profile was evaluated by assessing the ability to counteract an NECA-induced increase in cAMP accumulation. Responses were expressed as a percentage of the maximal relative luminescence units (RLU). Concentration–response curves were fitted by a nonlinear regression using Prism software. […]

CK1δ = conditions: cited from earlier work
CK1ε = conditions: cited from earlier work

| Compound | remaining activity at 10 µM (truncated CK1δ) [%] | remaining activity at 40 µM (truncated CK1δ) [%] | IC50 (truncated CK1δ) [µM] | Ki (human recombinant A1AR) [nM] | Ki (human recombinant A2AAR [2]) [nM] | Ki (human recombinant A3AR) [nM] | melting point [°C] | IC50 (hA2AAR) [nM] | IC50 (CK1δ/ε) [nM] | IC50 (CDK5) [nM] | Ki (human recombinant A2AAR [1]) [nM] | IC50 (CK1δ) [nM] | IC50 (CK1ε) [nM] |
| --- | --- | --- | --- | --- | --- | --- | --- | --- | --- | --- | --- | --- | --- |
| CC[C@H](CO)Nc1nc(Nc2ccc(-c3cccnc3)cc2)c2ncn(C(C)C)c2n1 [(R)-DRF053] | – | – | – | – | – | – | – | – | 14 | 80 | – | – | – |
| CCn1cnc2c(N)nc(Cl)nc21 [Compound 3] | 71 | 41 | > 10 | – | – | – | – | – | – | – | 3000 | – | – |
| Fc1cccc(-n2cnc3c(NCc4nc5ccc(Cl)cc5[nH]4)nc(N4CCNCC4)nc32)c1 [SR-2890] | – | – | – | – | – | – | – | – | 4 | – | – | – | – |
| c1ccc2[nH]c(CNc3nc(N4CCOCC4)nc4c3ncn4-c3ccsc3)nc2c1 [SR-653234] | – | – | – | – | – | – | – | – | – | – | – | 160 | 540 |

The next lines start with results.

| remaining activity at 10 µM (truncated CK1δ) [%] | remaining activity at 40 µM (truncated CK1δ) [%] | IC50 (truncated CK1δ) [µM] | Ki (human recombinant A1AR) [nM] | Ki (human recombinant A2AAR [2]) [nM] | Ki (human recombinant A3AR) [nM] | melting point [°C] | IC50 (hA2AAR) [nM] | Compound | IC50 (CK1δ/ε) [nM] | IC50 (CDK5) [nM] | Ki (human recombinant A2AAR [1]) [nM] | IC50 (CK1δ) [nM] | IC50 (CK1ε) [nM] |
| --- | --- | --- | --- | --- | --- | --- | --- | --- | --- | --- | --- | --- | --- |
| – | 90 ± 4.6 | > 40 | 53 ± 9 | 36 ± 9 | 17 ± 2 | 158 to 159 | – | Nc1nc(Cl)nc2c1nc(-c1cccs1)n2C1CCCC1 [Compound 9, 2-chloro-9-cyclopentyl-8-(thiophen-2-yl)-9H-purin-6-amine] | – | – | – | – | – |
| 27 ± 4 | 19 ± 9.4 | 1.75 ± 0.2 | 3340 ± 658 | 123 ± 2 | 2880 ± 695 | – | 418 ± 98 | CN(C)c1nc(N)c2ncn(C3CCCC3)c2n1 [Compound 12, 9-Cyclopentyl-N^2,N^2-dimethyl-9H-purine-2,6-diamine] | – | – | – | – | – |
| 34 ± 5 | 22 ± 1 | 0.59 ± 0.2 | 2900 ± 648 | 76 ± 17 | 1150 ± 107 | – | 69 ± 18 | CN(C)c1nc(NCc2nc3ccccc3[nH]2)c2ncn(C3CCCC3)c2n1 [Compound 17, N^6-((1H-benzo[d]imidazol-2-yl)methyl)-9-cyclopentyl-N^2,N^2-dimethyl-9H-purine-2,6-diamine] | – | – | – | – | – |
| 27 ± 20 | 14 ± 9.7 | 0.66 ± 0.2 | 1340 ± 279 | 1170 ± 37 | 151 ± 15 | 100 to 101 | – | Clc1nc(NCCc2ccccc2)c2ncn(C3CCCC3)c2n1 [Compound 23, 2-chloro-N^6-(2-phenylethyl)-9-cyclopentyladenine] | – | – | – | – | – |
| 26 ± 6.7 | 11 ± 19 | 0.73 ± 0.1 | 692 ± 88 | 3340 ± 749 | 1270 ± 289 | 177 to 179 | – | Clc1nc(NCCCc2ccccc2)c2ncn(C3CCCC3)c2n1 [Compound 24, 2-chloro-9-cyclopentyl-N-(3-phenylpropyl)-9H-purin-6-amine] | – | – | – | – | – |
